Measurements as given in patent US7767210B2, “RNA virus vaccines and methods” (priority 2005, dated 2010).

Assays:
WNV [1] = experiment: Safety of MB-treated WNV in immunodeficient mice (i.p. injection, survival); assay type: in vivo, C.B. 17-SCID mice; conditions: 20 μM MB; conclusion from BalbC/j and SCID mice
WNV strain OK02 = experiment: Safety of MB-treated WNV in immunocompetent mice (i.p. injection, survival); assay type: in vivo, BalbC/j mice; conditions: virus treated with MB+light, doses of 10^3 and 10^4 pfu per animal
NY-99 strain of WNV = experiment: MB + light inactivation of WNV, plaque assay on Vero cells; assay type: cell-based, West Nile Virus; conditions: MB above 2 μM and light; data not shown; stated as 'held true' for this strain
Procedure: (§1) MB inactivation of West Nile Virus. 1 ml aliquots of WNV at a concentration of 10^7 pfu were mixed with MB (SIGMA INC.) to achieve the desired final concentration of MB in the reaction mixture. Mixtures were incubated for 20 minutes in the dark at room temperature and then subsequently for 10 minutes at 10 cm distance from a 40 watt fluorescent white culture hood light at room temperature. Samples were then diluted to the desired concentration of WNV for plaque assay. Inactivated virus was prepared fresh for each assay and never kept for longer than 2 hours at 4° C. before use. It is contemplated that other RNA viruses as described herein can be similarly treated for vaccine formation.
(§2) Plaque Assays. Five-fold serial dilutions of WNV strains either mock-treated or treated with MB were placed onto Vero cell monolayers cultured in either 6-well plates or T25 culture flasks (GREINER INC.). Virus aliquots were allowed to attach to the cells for 1 hour at normal cell culture conditions. After one hour the virus was aspirated from the cells. The monolayers were washed twice with phosphate-buffer saline (PBS) and overlayed with 2 ml or 5 ml (6-well or T25, respectively) of 1% methylcellulose (SIGMA INC.) medium supplemented with 2% calf serum. Cells were incubated for 5 days. Afterwards the methylcellulose was removed, the monolayers were washed once with PBS and fixed with 100% ice-cold methanol for 5 minutes. The monolayers were subsequently stained with 0.5% Giemsa stain (SIGMA INC.) and plaques counted using a MZ12 dissecting microscope (LEICA INC., Germany).
(§3) As a member of the Flaviviridae family of viruses, WNV utilizes a RNA dependent RNA polymerase for replication. This process is relatively error prone and can lead to the creation of multiple strains. To test the ability of MB to inactivate multiple WNV strains, MB was tested against multiple strains of WNV, including OK02, OK03 and NY-99 (the 1999 prototype virus NY-99 and the more recent Oklahoma isolates from 2002 and 2003). 5×10^3 pfu of OK03 WNV was incubated with 2 μM MB and light. […]

OK03 strain of WNV = experiment: as above; assay type: cell-based, West Nile Virus; conditions: MB above 2 μM and light; FIG. 2 panel B; stated as 'held true' for this strain
Procedure: as §1, §2, §3

OK02 strain of WNV = experiment: as above; assay type: cell-based, West Nile Virus; conditions: MB above 2 μM and light; FIG. 2 panel A
Procedure: as §1, §2, §3

WNV [2] = experiment: MB photoinactivation of WNV in tissue culture (strain not stated); assay type: cell-based, West Nile Virus
Procedure: as §1
as §2, with “Cells were incubated for 5 days. Afterwards the methylcellulose was removed, the monolayers were washed once with PBS and fixed with 100% ice-cold methanol for 5 minutes.” left out

[3] = cited from earlier work

CN(C)c1ccc2nc3ccc(N(C)C)cc3[s+]c2c1.[Cl-] [MB, 3,7-Bis(dimethylamino)phenothiazin-5-ium chloride]
effect on WNV-associated morbidity and mortality in vivo (WNV [1]): can stop WNV-associated morbidity and mortality
WNV-associated morbidity and mortality (WNV strain OK02): completely block-associated morbidity and mortality
reduction of viral activity (NY-99 strain of WNV): ≥ 10^3
reduction of viral activity (OK03 strain of WNV): ≥ 10^3
reduction of viral activity (OK02 strain of WNV): ≥ 10^3
reduction of virus titer (WNV [2]; 20 μM MB + light): 10^7 pfu
IC50 (WNV [2]; West Nile virus, MB + light, tissue culture, read-out: IC50 of MB+light inactivation of WNV): 100 nM
oral absorption ([3]; DiSanto and Wagner 1972): absorbed orally
concentration in blood ([3]; oral 100 mg/kg twice daily (Naylor et al., 1986)): ~50 µM
half-life ([3]; oral (DiSanto and Wagner 1972)): about 10 h
side effects on long-term oral use ([3]; oral, up to 19 months at 100 mg/kg twice daily (Naylor et al., 1986)): no reported side effects
